Experimental findings from the METLIN SMRT retention time set (Domingo-Almenara et al. 2019) are described below.

Each structure is given as a SMILES string.

The nature of this data set: gradient 5% acetonitrile 3 min, to 50% in 2 min, to 85% in 15 min, held 3 min, 100 µL/min. The note with it: column: Zorbax Extend-C18 2.1 x 50 mm; eluents: water / acetonitrile, 0.1% formic acid. The gist of the method: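 Retention times of pure standards were taken from adduct peaks that were selected by computer and manually inspected. Over 3 months, mixtures of ~100 molecules were run by HPLC–quadrupole time-of-flight mass spectrometry in positive and negative ionization mode. The Zorbax Extend-C18 column (2.1 × 50 mm, 1.8 μm) ran at 100 μL/min in water and acetonitrile, each containing 0.1% formic acid, with 40 μL dead volume and 900 μL dwell volume.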
Turning to `CC(C)S(=O)(=O)c1cc2c(cc1NC(=O)c1ccccc1Cl)n(C)c(=O)n2C`, the RP-LC retention time worked out at 824 s.

In the case of `O=S(=O)(c1ccc2c(c1)CCCC2)N1CCCn2nc(-c3ccncc3)cc2C1`, the RP-LC retention time was found to be 706 s. As for `CC(NC(=O)c1ccc(-c2ccnc(N3CCCC3)n2)cc1)c1cccnc1` (stereo not given), the figure is 586 s; as for `Cn1nc(C2CCCN2C(=O)C2(c3ccccc3)CC2)n(Cc2ccccc2)c1=O` (stereo not given), 830 s. The molecule `CCn1nc(C)cc1C(=O)N1CCNC(=O)C1(C)C` returned an RP-LC retention time of 568 s. As for `Cc1ccc(NS(=O)(=O)c2cc(-c3[nH]ncc3C(=O)N3CCOCC3)oc2C)cc1C`, the figure is 713 s; as for `Cc1cc(C)n(-c2ccnc(N3CCC(C(=O)NCc4ccncc4)CC3)n2)n1`, 599 s.

The molecule `Cc1ccc(C(=O)NCC2CCCN(S(=O)(=O)c3c(C)c(C)cc(C)c3C)C2)cc1` (stereo not given) displayed an RP-LC retention time of 1100 s. As for `O=C(NCC1CCN(C(=O)Nc2ccc(F)cc2)CC1)Oc1ccccc1`, the figure is 772 s. As for `COCCC1(NC(=O)c2ccoc2)CCN(CC2CC2)CC1`, the figure is 581 s. For `O=C1[C@H]2CN(Cc3ccc(F)cc3Cl)C[C@H]2C(=O)N1Cc1ccc2c(c1)OCO2` the value was 992 s; for `CCc1nc2cc(N3CCCC(C(=O)NC4CCCC4)C3)cnc2nc1CC` (stereo not given), 785 s; for `Cc1csc(-c2cc(S(=O)(=O)NCc3cccs3)c(C)n2C)n1`, 924 s.

Turning to `CC(=O)c1ccc(N2CCN(c3ccc(NC(=O)C4CCC4)c(C(=O)O)c3)CC2)cc1`, the RP-LC retention time turned out to be 853 s. In the case of `CC(C)NC(=O)c1sc(-n2cccc2)nc1C(C)C`, the RP-LC retention time is 1060 s. As for `CCCOc1nn(CCC)cc1C(=O)N1CCCC1`, the figure is 700 s.

In the case of `O=C(NCc1ccco1)C1CCN(c2ncccc2-c2nc(-c3ccc(Cl)cc3)no2)CC1`, the RP-LC retention time was found to be 1090 s. Molecule `CN(C)C(CNC(=O)c1cc(-c2ccccc2)on1)c1cccs1` (stereo not given) had an RP-LC retention time of 663 s. With `O=C(Nc1ccc(F)c(F)c1)c1cnc(-c2ccc(F)cc2)nc1-c1ccncc1`, the RP-LC retention time is 985 s. For `CN(NC1=NCCO1)c1ccc2ccccc2c1` the value was 620 s; for `Cc1ccc(NC(=O)C2CCN(S(=O)(=O)c3c(C)[nH]c(C)c3C(=O)N3CCCC3)CC2)cc1C`, 727 s. For `CCN(CC)S(=O)(=O)c1ccc2c(c1)N(CC(=O)NCCc1ccccc1)C(=O)C1CCCCN21` (stereo not given) the value was 1000 s; for `O=C(CSc1nccn1Cc1ccc2c(c1)OCO2)Nc1ccccc1F`, 621 s; for `Cc1cc(C)n(CCC(=O)NCC23CCC=C2N(CC2CC2)C(=O)CC3)n1` (stereo not given), 698 s. Molecule `Cc1noc([C@@H]2CN(C(=O)c3cc(C)n(Cc4ccco4)c3C)C[C@H]2C(N)=O)n1` showed an RP-LC retention time of 686 s. For `O=C(CSc1n[nH]c(-c2ccc(F)cc2)n1)Nc1ccc(F)cc1F` the value was 853 s.

In turn, `CCc1ccc(-c2nc(-c3ccc4nnc(CC)n4c3)no2)cc1` came in with an RP-LC retention time of 1140 s. As for `COc1cc(Cl)c(C)cc1NC(=O)C1CCN(c2c(C(=O)N3CCOCC3)cnc3snc(C)c23)CC1`, the RP-LC retention time is 945 s. As for `CN(c1nc2ccccc2s1)C1CCN(C[C@H](O)COc2ccc(F)c(F)c2)CC1`, the figure is 777 s. Molecule `Cc1ccnn1-c1ccc(SCC(=O)Nc2cc(F)ccc2F)nn1` registered an RP-LC retention time of 934 s. Regarding `COc1ccc(-c2noc(CS(=O)(=O)c3ccc(Cl)cc3)n2)cc1OC`, the RP-LC retention time was 1030 s. For `Cc1ccc(CNC(=O)C2(C)CN(S(C)(=O)=O)CC(=O)N2Cc2ccc(N(C)C)cc2)cc1` (stereo not given) the value was 668 s; for `O=C(Nc1ccc2c(c1)CN(S(=O)(=O)c1cccnc1)CCO2)C1CC1`, 712 s; for `Cn1cnnc1C1CCCCN1C(=O)c1cc(-c2cccs2)[nH]n1` (stereo not given), 637 s.

`COCCCNC(=O)C1CCCN(C(=O)c2[nH]c(C)cc2C)C1` (stereo not given) displayed an RP-LC retention time of 652 s. `Cc1cccc(S(=O)(=O)N2CCC(C)(C(=O)NCc3ccccc3)CC2)c1` returned an RP-LC retention time of 935 s. Consider `Cc1nc(-n2c(C)ccc2C)sc1C(=O)NC1CC1`, for which the RP-LC retention time is 850 s. Regarding `CCn1cc(-c2nc(C)c(C(=O)N3CCc4ccccc4C3)s2)c2cccnc21`, the RP-LC retention time is 987 s.

With `Clc1ccc(-c2nnc(-c3cccnc3NCc3cccs3)o2)cc1`, the RP-LC retention time was 1310 s. As for `COc1ccccc1-c1noc(Cn2nc(-c3ccc4c(c3)OCO4)ccc2=O)n1`, the figure is 877 s.

For `CCNc1cc(C)nc(N2CCN(C(=O)c3ccccc3Cl)CC2)n1`, the RP-LC retention time worked out at 576 s. As for `Cc1ccc(N2CC(C(=O)N3CCCC3)CC2=O)cc1` (stereo not given), the figure is 640 s.

With `COc1ccc(-c2noc(Cc3nnc(-c4cccc(Cl)c4)o3)n2)cc1F`, the RP-LC retention time came out at 1060 s. As for `CCc1ccc(CNC(=O)C2CCN(c3ncccc3S(=O)(=O)N3CCCCC3)CC2)cc1`, the figure is 1040 s; as for `CCCCN1C(=O)C(C)(C(=O)NCc2cccc(C)c2)Oc2cccnc21` (stereo not given), 1030 s.

The molecule `CC(C)n1cc(C2=CCN(S(=O)(=O)c3ccccc3)CC2)c2cccnc21` displayed an RP-LC retention time of 702 s. The molecule `CCn1ccc(C(=O)N2CC(N(C3CCOCC3)S(C)(=O)=O)C2)n1` displayed an RP-LC retention time of 625 s. Regarding `Cc1ccnc(NS(=O)(=O)c2ccc(NC(=O)C3=COCCO3)cc2)n1`, the RP-LC retention time came out at 603 s. As for `Cc1ccc(-c2cc(-c3cc(-c4ccc(C)cc4C)n[nH]3)[nH]n2)c(C)c1`, the figure is 1070 s. For `CCOC(=O)c1nc(NCCCN2CCN(c3ccc(F)cc3)CC2)c2ccccc2n1` the value was 647 s.

`COC1CN(C2CCN(C(=O)c3sc(C)nc3C)CC2)C12CCOCC2` (stereo not given) returned an RP-LC retention time of 796 s. For the molecule `CCN1c2ccc(F)cc2C(=O)NC12CCN(C(=O)c1ccc(C)cc1)CC2`, the RP-LC retention time amounted to 824 s. For `Cc1cccc(C)c1-n1ccn(Cc2nc(-c3cccc(F)c3)no2)c(=O)c1=O` the value was 901 s; for `CC(NC(=O)c1sc2ncccc2c1-n1cccc1)c1ccc2c(c1)OCCO2` (stereo not given), 1020 s.

`CCOc1ccc(CNC(=O)C2CCCN(c3cc(=O)n(C)c(=O)n3C)C2)cc1` (stereo not given) returned an RP-LC retention time of 709 s.

As for `CCC(=O)N1CCCC(C(=O)N2CCOCC2)C1` (stereo not given), the RP-LC retention time came to 564 s. For `CC(=O)N1c2ccc(S(=O)(=O)N3CCCC3)cc2CC1C(=O)NCCN1CCCCC1` (stereo not given) the value was 592 s; for `COc1cccc(-c2n[nH]c3c2C(c2ccc(O)c(OC)c2)NC3=O)c1` (stereo not given), 634 s; for `O=C(CSc1ccc(N2CCCC(C(=O)NC3CC3)C2)nn1)Nc1cc(F)ccc1F` (stereo not given), 617 s. As for `COCCOC1CN(C2CCN(C(=O)Nc3ccccc3)CC2)C12CCCCC2` (stereo not given), the figure is 641 s. The molecule `CC(C)CCNC(=O)N1CCCC(C)(C(=O)NCc2ccccc2)C1` (stereo not given) had an RP-LC retention time of 834 s. For `O=C(Nc1ccccn1)c1ccc(S(=O)(=O)NC2CCCC2)cc1`, the RP-LC retention time was 722 s. `COc1ccc(C2CC(=O)Nc3c(C(=O)O)cn(-c4cccc(F)c4)c32)cc1OC` (stereo not given) displayed an RP-LC retention time of 728 s. For `CCOC(=O)c1cc(S(=O)(=O)N2CCCC2C(=O)NC2CCCCCC2)cn1C` (stereo not given) the value was 968 s. Turning to `COc1cc(-c2noc(-c3ncn4c3COC(c3ccc(F)cc3)C4)n2)cc(OC)c1OC` (stereo not given), the RP-LC retention time was found to be 976 s. Take `Cc1nc(C)c(C(=O)N2CCCCCCN(C)C(=O)[C@@H]3CCC[C@@H]32)s1`: the RP-LC retention time was found to be 728 s. For `CCOCCCNC(=O)c1cnn2c(C(F)(F)F)cc(-c3ccccc3)nc12` the value was 1010 s; for `COc1ccc(NC(=O)N2CCc3[nH]cnc3C2c2ccccn2)cc1OC` (stereo not given), 568 s. `O=C(N[C@H](Cc1ccccc1)C(=O)NCc1cscn1)c1ccc(F)cc1` had an RP-LC retention time of 1090 s.

Consider `COCc1cc(=O)n(CC(=O)Nc2cc(C)ccc2C)c(N)n1`, for which the RP-LC retention time worked out at 631 s. As to `O=C(CCc1c(-c2ccc(Br)cc2)nc2ccccn12)NCc1cccnc1`, the RP-LC retention time is 557 s. For `COc1ccc(Cn2ccc3ccc(C(=O)NO)cc32)cc1` the value was 782 s.

In the case of `O=c1ccc(-c2ccc(F)cc2)nn1CCc1nc(-c2cccc(Br)c2)no1`, the RP-LC retention time worked out at 1100 s. As for `CN1C(=O)c2cccnc2Sc2cc(NC(=O)Cc3ccccc3Cl)ccc21`, the figure is 812 s. `CCOC(=O)c1sc(N2CCN(c3ccccc3)CC2)nc1N` showed an RP-LC retention time of 931 s.

`O=C(Cn1nc2c(N3CCCCCC3)nccn2c1=O)Nc1ccc(F)cc1` displayed an RP-LC retention time of 715 s. `CCOc1ccc(S(=O)(=O)N2CCC(c3noc(-c4ccc(Cl)cc4)n3)CC2)cc1` yielded an RP-LC retention time of 1260 s.

`CCOc1ccc(N2C(=O)C3N=NN(Cc4nc(-c5cccc(Br)c5)no4)C3C2=O)cc1` (stereo not given) returned an RP-LC retention time of 1080 s.

Molecule `Cc1ccc(-c2nc3ncccn3c2Nc2ccc3c(c2)OCCO3)cc1` yielded an RP-LC retention time of 684 s.

Regarding `Cc1ccc(S(=O)(=O)NCC(=O)Oc2ccccc2C)cc1`, the RP-LC retention time is 881 s.
